# Measurements: ChEMBL document CHEMBL5465560, “Selectivity Literature for EUbOPEN Chemogenomic Library” (2024)
# Columns and labels:
# [1] = target: Vasopressin V2 receptor (Homo sapiens, UniProt P30518); assay: Selectivity interaction (Eurofins CEREP Diversity Profile (receptors and ion channels)) EUB0000279b AVPR2; conditions: at 10 µM
# [2] = target: Ribosomal protein S6 kinase alpha-1 (Homo sapiens, UniProt Q15418); assay: Selectivity interaction (KinomeScan (DiscoverX)) EUB0000607a RPS6KA1; conditions: at 10 µM
# [3] = target: Calcium/calmodulin-dependent protein kinase type II subunit beta (Homo sapiens) (UniProt Q13554); assay: Selectivity interaction (Kinase panel (DSF assay)) EUB0001558a CAMK2B
# [4] = target: Tyrosine-protein kinase ABL1 (Homo sapiens, UniProt P00519); assay: Selectivity interaction (KinomeScan (DiscoverX)) EUB0000045b ABL1; conditions: at 1 µM
# [5] = target: T1, Interleukin-1 receptor-associated kinase 4 (Homo sapiens) (UniProt Q9NWZ3); assay: Selectivity interaction (KinomeScan (DiscoverX)) EUB0000045b IRAK4
# T1 sequence (whole entry): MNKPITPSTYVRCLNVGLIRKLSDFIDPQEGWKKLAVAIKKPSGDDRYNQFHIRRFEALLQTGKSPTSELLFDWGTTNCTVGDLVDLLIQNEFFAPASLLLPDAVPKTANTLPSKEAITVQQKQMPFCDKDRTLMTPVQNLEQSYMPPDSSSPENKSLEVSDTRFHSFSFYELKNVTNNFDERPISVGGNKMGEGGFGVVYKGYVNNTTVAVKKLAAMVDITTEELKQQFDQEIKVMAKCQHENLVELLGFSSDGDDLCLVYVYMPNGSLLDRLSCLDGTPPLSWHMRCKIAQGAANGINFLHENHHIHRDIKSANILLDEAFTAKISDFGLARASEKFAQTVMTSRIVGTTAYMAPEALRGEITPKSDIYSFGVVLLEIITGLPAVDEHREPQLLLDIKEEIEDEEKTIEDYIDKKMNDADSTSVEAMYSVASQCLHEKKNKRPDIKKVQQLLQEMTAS
# [6] = target: T2, Eukaryotic translation initiation factor 2-alpha kinase 3 (Homo sapiens) (UniProt Q9NZJ5); assay: Selectivity interaction (Kinase panel (KiNativ target engagement assay in Jurkat cells)) EUB0001635a EIF2AK3; assay type: cell-based; conditions: Selectivity number of off-targets 0.0, Selectivity number of targets 233.0, Source Knowledge https://www.sciencedirect.com/science/article/pii/S2451945619300674?via%3Dihub, at 1 µM
# T2 sequence (whole entry): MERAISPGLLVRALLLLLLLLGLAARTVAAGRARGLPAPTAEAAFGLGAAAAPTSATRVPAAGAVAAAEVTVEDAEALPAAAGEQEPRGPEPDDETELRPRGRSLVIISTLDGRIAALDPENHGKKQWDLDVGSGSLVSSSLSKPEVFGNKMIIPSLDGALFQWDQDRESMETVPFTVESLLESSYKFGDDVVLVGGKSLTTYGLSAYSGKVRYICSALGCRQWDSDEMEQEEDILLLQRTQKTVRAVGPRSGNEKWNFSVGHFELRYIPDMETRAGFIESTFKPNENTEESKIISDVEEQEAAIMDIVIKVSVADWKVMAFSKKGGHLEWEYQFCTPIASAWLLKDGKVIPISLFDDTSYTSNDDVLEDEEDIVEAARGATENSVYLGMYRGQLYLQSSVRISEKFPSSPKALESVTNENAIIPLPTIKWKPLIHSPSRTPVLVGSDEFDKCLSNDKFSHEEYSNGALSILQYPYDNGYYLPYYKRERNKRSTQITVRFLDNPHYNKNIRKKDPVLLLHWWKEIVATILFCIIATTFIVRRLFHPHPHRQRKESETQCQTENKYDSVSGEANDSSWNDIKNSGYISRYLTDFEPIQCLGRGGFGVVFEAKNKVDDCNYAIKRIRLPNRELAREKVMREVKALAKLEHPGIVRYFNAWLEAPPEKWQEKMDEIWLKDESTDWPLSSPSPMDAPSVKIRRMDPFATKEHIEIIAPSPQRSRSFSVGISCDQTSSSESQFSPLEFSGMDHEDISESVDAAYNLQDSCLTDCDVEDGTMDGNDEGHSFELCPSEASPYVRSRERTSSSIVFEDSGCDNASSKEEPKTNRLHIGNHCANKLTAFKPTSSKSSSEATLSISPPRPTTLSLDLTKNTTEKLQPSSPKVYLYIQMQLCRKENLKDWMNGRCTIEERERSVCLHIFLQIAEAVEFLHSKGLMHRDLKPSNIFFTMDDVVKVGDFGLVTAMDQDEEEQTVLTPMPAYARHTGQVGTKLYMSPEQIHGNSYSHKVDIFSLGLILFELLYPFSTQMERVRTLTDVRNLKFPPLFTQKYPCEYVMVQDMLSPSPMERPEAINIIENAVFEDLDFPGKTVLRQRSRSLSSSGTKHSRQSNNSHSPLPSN
# [7] = target: Casein kinase I isoform alpha (Homo sapiens, UniProt P48729); assay: Selectivity interaction (Kinase panel (KiNativ target engagement assay in Jurkat cells)) EUB0001635a CSNK1A1; assay type: cell-based; conditions: Selectivity number of off-targets 0.0, Selectivity number of targets 233.0, Source Knowledge https://www.sciencedirect.com/science/article/pii/S2451945619300674?via%3Dihub, at 1 µM
# [8] = target: CDK9/cyclin T1 (Homo sapiens) (UniProt O60563+P50750); assay: (§1) Selectivity interaction (ProQinase) EUB0000171b CDK9; assay type: protein-complex assay
# [9] = target: CDK9/Cyclin K (Homo sapiens) (UniProt P50750+O75909); assay: as §1; assay type: protein-complex assay
# [10] = target: Activin receptor type-2B (Homo sapiens) (UniProt Q13705); assay: Selectivity interaction (KinomeScan (DiscoverX)) EUB0001049a ACVR2B; conditions: at 1 µM
# Chain of Activin receptor type-2B (Homo sapiens) (Q13705 whole entry): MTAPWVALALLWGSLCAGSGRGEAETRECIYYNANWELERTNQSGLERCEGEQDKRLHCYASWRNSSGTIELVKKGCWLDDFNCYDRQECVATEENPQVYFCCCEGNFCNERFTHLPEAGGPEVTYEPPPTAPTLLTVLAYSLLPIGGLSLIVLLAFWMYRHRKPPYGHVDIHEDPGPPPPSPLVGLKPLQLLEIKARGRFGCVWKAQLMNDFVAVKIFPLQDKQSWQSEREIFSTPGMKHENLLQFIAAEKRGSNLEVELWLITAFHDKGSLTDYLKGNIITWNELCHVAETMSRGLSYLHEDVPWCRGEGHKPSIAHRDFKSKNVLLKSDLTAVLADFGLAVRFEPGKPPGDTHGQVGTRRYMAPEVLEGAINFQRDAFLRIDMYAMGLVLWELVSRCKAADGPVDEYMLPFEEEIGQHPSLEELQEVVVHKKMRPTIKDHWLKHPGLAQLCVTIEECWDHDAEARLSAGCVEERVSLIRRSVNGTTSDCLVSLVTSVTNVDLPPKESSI
# Chain of Casein kinase I isoform alpha (P48729 2-337 limits assumed): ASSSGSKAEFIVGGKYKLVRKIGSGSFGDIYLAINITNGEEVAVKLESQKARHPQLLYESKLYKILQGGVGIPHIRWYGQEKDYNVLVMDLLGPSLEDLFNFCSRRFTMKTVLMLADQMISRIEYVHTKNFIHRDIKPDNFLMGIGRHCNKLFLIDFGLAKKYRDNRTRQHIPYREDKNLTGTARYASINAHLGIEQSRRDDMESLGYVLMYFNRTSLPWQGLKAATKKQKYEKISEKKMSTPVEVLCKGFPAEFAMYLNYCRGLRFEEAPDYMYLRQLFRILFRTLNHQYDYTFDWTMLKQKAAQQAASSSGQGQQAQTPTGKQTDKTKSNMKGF
# Chain of Vasopressin V2 receptor (P30518 whole entry): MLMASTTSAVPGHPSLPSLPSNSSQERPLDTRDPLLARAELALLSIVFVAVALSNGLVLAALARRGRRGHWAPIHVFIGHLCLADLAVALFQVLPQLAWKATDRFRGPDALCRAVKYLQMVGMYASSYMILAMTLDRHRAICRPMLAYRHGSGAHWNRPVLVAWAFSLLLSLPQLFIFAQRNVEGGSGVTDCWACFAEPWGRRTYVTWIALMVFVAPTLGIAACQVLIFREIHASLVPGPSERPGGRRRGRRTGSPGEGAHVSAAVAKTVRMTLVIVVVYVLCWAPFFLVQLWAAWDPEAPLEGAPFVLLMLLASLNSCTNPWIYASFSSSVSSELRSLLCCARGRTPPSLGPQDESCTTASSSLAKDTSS
# Chain of Calcium/calmodulin-dependent protein kinase type II subunit beta (Homo sapiens) (Q13554 whole entry): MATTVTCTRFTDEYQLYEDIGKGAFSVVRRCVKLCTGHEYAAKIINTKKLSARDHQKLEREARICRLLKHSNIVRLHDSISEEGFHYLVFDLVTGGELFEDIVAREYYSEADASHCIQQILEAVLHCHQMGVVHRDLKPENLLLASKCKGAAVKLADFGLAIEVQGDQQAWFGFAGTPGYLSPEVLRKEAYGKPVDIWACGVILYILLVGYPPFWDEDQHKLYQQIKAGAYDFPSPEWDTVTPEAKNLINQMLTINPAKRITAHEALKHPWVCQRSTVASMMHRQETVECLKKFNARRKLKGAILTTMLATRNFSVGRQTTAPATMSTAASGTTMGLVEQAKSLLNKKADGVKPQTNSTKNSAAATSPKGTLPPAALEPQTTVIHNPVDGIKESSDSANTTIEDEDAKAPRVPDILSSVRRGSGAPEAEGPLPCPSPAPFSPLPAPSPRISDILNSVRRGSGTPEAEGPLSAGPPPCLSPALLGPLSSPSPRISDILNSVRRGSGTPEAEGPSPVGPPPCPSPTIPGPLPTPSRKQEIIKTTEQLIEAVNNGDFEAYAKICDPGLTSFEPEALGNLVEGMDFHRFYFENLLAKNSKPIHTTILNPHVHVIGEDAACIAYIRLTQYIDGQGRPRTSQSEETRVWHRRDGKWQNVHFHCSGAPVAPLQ
# Chain of Tyrosine-protein kinase ABL1 (P00519 whole entry): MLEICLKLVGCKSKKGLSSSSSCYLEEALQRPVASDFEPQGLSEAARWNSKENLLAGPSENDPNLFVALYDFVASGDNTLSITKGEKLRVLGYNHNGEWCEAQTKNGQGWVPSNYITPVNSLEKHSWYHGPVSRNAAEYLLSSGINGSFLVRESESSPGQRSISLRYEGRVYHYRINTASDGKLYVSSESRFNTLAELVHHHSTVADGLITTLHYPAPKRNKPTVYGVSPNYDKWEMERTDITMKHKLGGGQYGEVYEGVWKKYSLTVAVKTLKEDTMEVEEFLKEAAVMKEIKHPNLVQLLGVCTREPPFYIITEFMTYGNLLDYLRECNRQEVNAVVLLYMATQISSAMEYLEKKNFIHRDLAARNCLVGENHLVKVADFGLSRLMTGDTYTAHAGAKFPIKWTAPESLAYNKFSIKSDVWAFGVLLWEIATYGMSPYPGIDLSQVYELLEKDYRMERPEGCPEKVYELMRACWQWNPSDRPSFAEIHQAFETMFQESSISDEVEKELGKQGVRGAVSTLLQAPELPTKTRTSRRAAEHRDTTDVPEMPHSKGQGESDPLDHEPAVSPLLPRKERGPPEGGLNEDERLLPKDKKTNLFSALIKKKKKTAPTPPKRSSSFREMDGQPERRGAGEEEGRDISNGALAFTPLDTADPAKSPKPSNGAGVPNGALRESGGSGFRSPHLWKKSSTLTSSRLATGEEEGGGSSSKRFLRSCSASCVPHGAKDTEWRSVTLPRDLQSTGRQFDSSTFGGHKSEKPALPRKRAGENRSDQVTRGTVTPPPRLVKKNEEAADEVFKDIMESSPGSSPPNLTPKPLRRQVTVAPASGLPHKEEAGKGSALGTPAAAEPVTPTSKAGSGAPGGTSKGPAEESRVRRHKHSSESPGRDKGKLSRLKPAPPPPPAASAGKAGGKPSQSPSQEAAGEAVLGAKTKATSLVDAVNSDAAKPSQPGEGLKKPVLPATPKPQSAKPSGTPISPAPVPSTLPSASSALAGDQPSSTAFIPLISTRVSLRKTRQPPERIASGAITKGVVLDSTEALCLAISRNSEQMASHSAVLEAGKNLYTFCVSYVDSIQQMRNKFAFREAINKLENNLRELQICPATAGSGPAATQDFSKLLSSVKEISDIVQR
# Chain of Ribosomal protein S6 kinase alpha-1 (Q15418 whole entry): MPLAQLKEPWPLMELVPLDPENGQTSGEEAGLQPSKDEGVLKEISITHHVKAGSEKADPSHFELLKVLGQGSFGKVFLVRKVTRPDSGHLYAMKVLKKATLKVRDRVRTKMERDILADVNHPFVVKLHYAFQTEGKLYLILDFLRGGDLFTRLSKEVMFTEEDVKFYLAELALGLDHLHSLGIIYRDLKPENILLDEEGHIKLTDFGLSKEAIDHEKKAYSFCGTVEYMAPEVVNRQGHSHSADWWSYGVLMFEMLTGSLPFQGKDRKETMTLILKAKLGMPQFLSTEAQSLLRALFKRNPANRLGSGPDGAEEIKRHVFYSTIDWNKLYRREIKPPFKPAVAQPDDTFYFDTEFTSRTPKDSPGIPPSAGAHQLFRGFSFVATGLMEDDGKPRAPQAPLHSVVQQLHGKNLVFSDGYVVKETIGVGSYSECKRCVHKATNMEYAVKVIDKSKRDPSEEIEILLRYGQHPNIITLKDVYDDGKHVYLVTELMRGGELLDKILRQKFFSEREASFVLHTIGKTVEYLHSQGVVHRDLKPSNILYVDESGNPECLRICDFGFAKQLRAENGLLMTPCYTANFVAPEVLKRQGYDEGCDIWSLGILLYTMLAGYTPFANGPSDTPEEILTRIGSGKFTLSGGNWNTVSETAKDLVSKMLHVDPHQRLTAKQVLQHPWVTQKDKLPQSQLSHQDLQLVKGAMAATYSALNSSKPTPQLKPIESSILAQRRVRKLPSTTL
smiles,measurement,setting,value
CC(=O)c1cc(-c2ccccc2OCC2CC2)c2ncccn12,% of control,[1],109%
CNC(=O)Nc1ccc(-c2nc(N3CC4CCC(C3)O4)c3cnn(C4CCC5(CC4)OCCO5)c3n2)cc1,% of control,[2],91%
CC(C)(O)[C@H](F)CN1Cc2cc(NC(=O)c3cnn4cccnc34)c(N3CCOCC3)cc2C1=O,dTM,[3],0.1 K
C=CC(=O)Nc1cc(-n2c(=O)ccc3cnc4ccc(-c5ccc(NS(C)(=O)=O)cc5)cc4c32)ccc1C,% of control,[4],100%
same,% of control,[5]; at 1 µM,84%
same,% of control,[5]; at 10 µM,100%
C=CC(=O)Nc1ccc(C(=O)Nc2[nH]nc3c2CN(C(=O)N[C@H](CN(C)C)c2ccccc2)C3(C)C)cc1,% of engagement,[6],-7.7%
same,% of engagement,[7],-2%
C=CC(=O)Nc1cccc(C(=O)Nc2ccc(Nc3cc(-c4[nH]c(SC)nc4C)ccn3)cc2)c1,% of control,[8]; at 1 µM,63%
same,% of control,[8]; at 5 µM,38%
same,% of control,[9]; at 1 µM,85%
same,% of control,[9]; at 5 µM,39%
COc1cc(Nc2nc(C)cc(-c3cnn4nc(OC)ccc34)n2)cc(C(F)(F)F)c1,% of control,[10],92%
